Source: patent US20260224680A1, “COMPOSITIONS FOR INDUCING OR RESCUING GLYCOLYSIS AND METHODS OF USE THEREOF” (Arizona Board of Regents on behalf of Arizona State …, priority 2023, published 2026)

How the values were obtained:
DCs [1] = experiment: Extracellular flux assays on DCs in vitro (ECAR, respiration); assay type: cell-based, mouse
Procedure: (§1) Data represented as mean±std error.
Next, the ability of the F16BP MPs to rescue glycolysis in DCs in the presence of glycolytic inhibitor PFK15 was evaluated using extracellular flux assays. DCs were cultured with either PFK15, F16BP MPs, soluble fructose-6-phosphate (F6P—upstream of PFKFB3) or PFK15+F16BP MPs, or individual components of the F16BP MPs for 2 hr, and extracellular acidification rate (ECAR—rate of glycolysis) measurements were obtained. […] This is important since under conditions of inflammation, DCs need to perform enhanced levels of glycolysis to support the inflammatory protein production.

DCs [2] = experiment: DC activation by flow cytometry in vitro; assay type: cell-based, mouse; conditions: in the presence of poly(IC); PFK15 conc.=25 μM
Description: as §1
To test if F16BP MPs can modulate the function of DCs, mRNA-based and peptide-based vaccine F16BP MPs were formulated. These vaccines were generated by intercalating di-phosphorylated melanoma peptide antigen Tyrosine related protein 2 (pTRP2), and poly(IC) and mRNA derived from melanoma cells, which contain several phosphate groups in their backbone (FIG. 12). Since pTRP2p, and poly(IC) have phosphate groups, these molecules can be incorporated into the F16BP MPs using the calcium-phosphate chemistry. The amount of pTRp2, and poly(IC) incorporated within the F16BP MPs was determined to be 78±3.4, and 50.9±7.9 μg, respectively. Next, F16BP MPs intercalated with poly(IC) and pTRP2 were incubated with DCs overnight, and flow cytometry was utilized to test if these particles could activate DCs (FIG. 2I and FIG. 2J).

B16F10 cancer cells = experiment: Proliferation assay using MTT, B16F10; assay type: cell-based, mouse; conditions: in vitro
YUMM1.1 cancer cells = experiment: Proliferation assay using MTT, YUMM1.1; assay type: cell-based, mouse; conditions: in vitro
B16F10 tumors = experiment: B16F10 melanoma model, adoptive transfer of Vacc DCs with PFK15; assay type: in vivo, mouse; conditions: day 16; vs no treatment control
Procedure: To test the versatility of the F16BP-PFK15 system, another aggressive B16F10 melanoma model was chosen (FIG. 4A). In this model, DCs were loaded with F16BP MPs intercalated with mRNA isolated from B16F10 cancer cells, and poly(IC) (Vacc DCs) and adoptively transferred in mice containing B16F10 tumors. This cellular therapy's ability to modulate adaptive immune responses, reduced tumor growth, and improve survival were measured.
To test if the metabolic rescue in DCs can be applied to adoptive cell therapy, adoptive transfer of DC-vaccines was tested in mice (FIG. 16). […] Specifically, 0.75×10^6 B16F10 cells were injected in C57BL/6j immunocompetent mice, and PFK15 was injected every alternate day for the duration of the study (FIG. 16). Moreover, ex vivo DCs loaded with F16BP(mRNA+poly(IC)) (Vacc DCs) or DCs loaded with F16BP MPs were adoptively transferred using retro-orbital injections (RO) on days 6 and 19 (FIG. 15).
To test if the Vacc DCs could modulate the immune responses after their administration, on day 16, spleen, lymph nodes, and tumors were isolated from different conditions and stained for the activation profile of DCs, and T cells. […]
Since Vacc DCs are administered systemically, spleen and cervical lymph nodes were also analysed for the changes in innate and adaptive immune responses (FIG. 19 through FIG. 22).

[3] = DCs cultured 2 hr, vs no treatment control

O=C(/C=C/c1ccc2ccccc2n1)c1ccncc1 [PFK15] was tested, and the “glycolysis (ECAR)” value (DCs [1]; [3]) was “lower than no treatment control”, the “glycolytic capacity (ECAR)” value (DCs [1]; [3]) was “lower than no treatment control” and the “glycolysis (ECAR)” value (DCs [1]; in the presence of poly(IC)) was “decreased”. For the same compound, the “glycolytic capacity (ECAR)” value (DCs [1]; in the presence of poly(IC)) was “decreased”, the “activation of DCs (CD80+CD86+ in CD11c+)” value (DCs [2]) was “able to decrease” and the “proliferation of B16F10 cancer cells” value (B16F10 cancer cells) was “effective in preventing proliferation”. The “proliferation of YUMM1.1 cancer cells” value (YUMM1.1 cancer cells) was “effective in preventing proliferation” and the “total number of CD8+ T cells in the tumor” value (B16F10 tumors) was “significantly decreased”.
